Where a name gives a salt, the structure may show the parent alone. Read-outs that look alike come from different tables or passages of the source.
Experiments:
[1] = target: T1, NBTI-specific adenosine transport site (Homo sapiens, UniProt Q99808); assay: [3H]-NBTI binding assay; conditions: 50% displacement of bound [3H]-NBTI (0.5 nM); neuronal membrane protein, 30 minutes, pH 7.4, room temperature; read-out: ED50 (the source's name)
T1 construct: incubated for 30 minutes with 0.5 mg neuronal membrane protein together with 0.5 nM [^3H]-NBTI; from tissue
T1 sequence (Q99808 1-456): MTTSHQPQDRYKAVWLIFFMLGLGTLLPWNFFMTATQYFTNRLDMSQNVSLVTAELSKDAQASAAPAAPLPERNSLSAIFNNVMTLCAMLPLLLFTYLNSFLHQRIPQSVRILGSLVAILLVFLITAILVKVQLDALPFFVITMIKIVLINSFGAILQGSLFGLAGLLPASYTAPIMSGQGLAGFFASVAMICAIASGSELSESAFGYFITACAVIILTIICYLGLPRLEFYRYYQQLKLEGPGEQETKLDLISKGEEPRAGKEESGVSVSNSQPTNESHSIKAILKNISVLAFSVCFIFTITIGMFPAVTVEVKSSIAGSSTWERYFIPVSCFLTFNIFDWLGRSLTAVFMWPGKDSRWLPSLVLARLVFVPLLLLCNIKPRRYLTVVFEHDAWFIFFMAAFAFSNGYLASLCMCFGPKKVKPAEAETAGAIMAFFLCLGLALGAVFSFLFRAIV
Method: Increasing concentrations of the test compounds were incubated for 30 minutes with 0.5 mg neuronal membrane protein together with 0.5 nM [^3H]-NBTI in a Tris buffer (pH 7.4) at room temperature. The assays were quenched and membranes collected by rapid filtration. Filters were then solubilized and radioactivity determined by scintillation counting.

[2] = system: coronary endothelial cells; assay: Inhibition of adenosine utilization in cell culture; type: cell-based; conditions: for inhibition at 5 µM / inhibition at 50 µM: Endothelial cell, read-out: Inhibition of Adenosine Utilization (%)
Method: Inhibition of adenosine utilization was determined by measuring the concentration of extracellular adenosine by scintillation counting following separation by thin layer chromatography (TLC).

Isolated rat hearts = assay: Improved functional recovery in isolated hearts (Langendorff, post-ischemic LVDP); conditions: 5 µM in perfusion buffer; 30 min ischemia, 30 min reperfusion; number in brackets = hearts
Method: Isolated rat hearts were cannulated via the ascending aorta and attached to a perfusion apparatus according to the method of Langendorff. The hearts were perfused at a constant pressure of 100 cm of H2O with a modified Krebs-Henseleit buffer (pH 7.4) at 37°C. As a measure of heart function, left ventricular developed pressure (LVDP) was continuously monitored. Following equilibration of the hearts for a period of 30 min., the hearts were subjected to reduced flow i.e. ischemia, by reducing the pressure to 10 cm of H2O for 30 min. Flow was then restored by returning the pressure to its original level (100 cm of H2O) for a further 30 min.

[3] = system: longitudinal muscle from the guinea pig ileum; assay: Inhibition of stimulated contraction in isolated ileum
Method: Parallel platinum electrodes were used to deliver electrical current at 1 minute intervals at a voltage adequate to induce contraction of 90% of maximal.

[4] = Cavia porcellus, concentration which inhibited electrically stimulated contraction by 50%, read-out: IC50
[5] = concentration which inhibited electrically stimulated contraction by 50%, read-out: IC50
[6] = 50 µM test compound, 1 µM [3H] adenosine, 15 minutes
[7] = 5 µM test compound, 1 µM [3H] adenosine, 15 minutes

SMILES	EC50 [1] [µM]	Function Recovery % Baseline LVDP (% of hearts) (Isolated rat hearts)	other results
Nc1c(C(=O)N2CCc3ccccc32)ncn1[C@@H]1O[C@H](CO)[C@@H](O)[C@H]1O [Compound No. 48, 5-Amino-1-β-D-ribofuranosyl-imidazole-4-N-indolinylcarboxamide]	22		inhibition at 5 µM [2]: 23 ± 3%; inhibition at 50 µM [2]: 25 ± 2%
Nc1c(C(=O)NCc2ccc(C(F)(F)F)cc2)ncn1[C@@H]1O[C@H](CO)[C@@H](O)[C@H]1O [Compound No. 74]		73.3±3.3 (6) %	
Nc1c(C(=O)NCc2cccc(Cl)c2)ncn1[C@@H]1O[C@H](CO)[C@@H](O)[C@H]1O [Compound No. 35, 5-amino-1-β-D-ribofuranosyl-imidazole-4-N[(3-chlorophenyl)methyl]carboxamide]			IC50 [3, 4]: 60 µM
C[C@@H](NC(=O)c1ncn([C@@H]2O[C@H](CO)[C@@H](O)[C@H]2O)c1N)c1ccc([N+](=O)[O-])cc1 [Compound No. 49]	7		inhibition at 5 µM [2]: 30 ± 4%; inhibition at 50 µM [2]: 33 ± 8%
Nc1c(C(=O)NCc2ccc([N+](=O)[O-])cc2)ncn1[C@@H]1O[C@H](CI)[C@@H](O)[C@H]1O [Compound No. 46, 5-Amino-1-(5-iodo-5-deoxy-β-D-ribofuranosyl)imidazole-4-N-[(4-nitrophenyl)methyl]carboxamide]	8		inhibition at 5 µM [2]: 19 ± 4%; inhibition at 50 µM [2]: 30 ± 9%
Nc1c(C(=O)NC[C@H](O)c2ccc(O)c(O)c2)ncn1[C@@H]1O[C@H](CO)[C@@H](O)[C@H]1O [compound 42, (R)-5-Amino-1-β-D-ribofurano-sylimidazole-4-N-[2-hydroxy-2-(3,4-dihydroxyphenyl)ethyl]carboxamide]			IC50 [3, 5]: 6 µM
Nc1c(C(=O)Nc2ccc([N+](=O)[O-])cc2)ncn1[C@@H]1O[C@H](CO)[C@@H](O)[C@H]1O [Compound No. 58, 5-Amino-1-β-D-ribofuranosylimidazole-4-N-(4-nitrophenyl)carboxamide]	80		
NC(=O)c1ncn([C@@H]2O[C@H](CNCc3ccccc3)[C@@H](O)[C@H]2O)c1N [Compound No. 66, 5-Amino-1-β-D-(5-benzylamino-5-deoxyribofuranosyl)imidazole-4-carboxamide]		88.5±1.8 (5) %	
Nc1c(C(=O)NCc2ccc(S(N)(=O)=O)cc2)ncn1[C@@H]1O[C@H](CO)[C@@H](O)[C@H]1O [Compound No. 75, 5-Amino-1-β-D-ribofuranosylimidazole-4-N-[(4-sulfamoylphenyl)methyl]carboxamide]			Inhibition of Adenosine Utilization (%) [2, 6]: 30 ± 3%
Cl.NC[C@H]1O[C@@H](n2cnc(C(=O)NC3CCCC3)c2N)[C@H](O)[C@@H]1O [Compound No. 37, 5-Amino-1-(5-amino-5-deoxy-β-D-ribofuranosyl)imidazole-4-N-(cyclopentyl)carboxamide Hydrochloride]		71.9±3.0 (5) %	
Nc1c(C(=O)NCCCc2ccc([N+](=O)[O-])cc2)ncn1[C@@H]1O[C@H](CO)[C@@H](O)[C@H]1O [Compound No. 73]			Inhibition of Adenosine Utilization (%) [2, 7]: 16 ± 0%; Inhibition of Adenosine Utilization (%) [2, 6]: 33 ± 9%
Nc1c(C(=O)NCCCCCCNC(=O)c2ncn([C@@H]3O[C@H](CO)[C@@H](O)[C@H]3O)c2N)ncn1[C@@H]1O[C@H](CO)[C@@H](O)[C@H]1O [Compound No. 68, N,N'-bis-(5-amino-1-β-D-ribofuranosylimidazole-4-carbonyl)-1,6-diaminohexane]		75.3±2.2 (4) %	
[N-]=[N+]=NC[C@H]1O[C@@H](n2cnc(C(=O)NCc3ccc(Cl)cc3)c2N)[C@H](O)[C@@H]1O [Compound No. 52, 5-Amino-1-(5-azido-5-deoxy-β-D-ribofuranosyl)imidazole-4-N-[(4-chlorophenyl)methyl]-carboxamide]		86.0±2.5 (5) %	inhibition at 5 µM [2, 7]: 56 ± 2%; inhibition at 50 µM [2, 6]: 71 ± 1%
C[C@H](NC(=O)c1ncn([C@@H]2O[C@H](CO)[C@@H](O)[C@H]2O)c1N)c1ccc([N+](=O)[O-])cc1 [Compound No. 50, (S)-5-Amino-1-β-D-ribofuranosylimidazole-4-N-[1-(4-nitrophenyl)ethyl]carboxamide]	28		
Nc1c(C(=O)N2CCN(c3ccc([N+](=O)[O-])cc3)CC2)ncn1[C@@H]1O[C@H](CO)[C@@H](O)[C@H]1O [Compound No. 60, 5-Amino-4-[1-[4-(4-nitrophenyl)]piperazinocarbamoyl]-1-β-D-ribofuranosylimidazole]	17		
CSC[C@H]1O[C@@H](n2cnc(C(N)=O)c2N)[C@H](O)[C@@H]1O [Compound No. 54, 5-Amino-1-(5-deoxy-5-methylthio-β-D-ribofuranosyl)imidazole-4-carboxamide]	28		
CN(C)c1ccc(CNC(=O)c2ncn([C@@H]3O[C@H](CO)[C@@H](O)[C@H]3O)c2N)cc1 [Compound No. 41, 5-Amino-1-β-D-ribofuranosylimidazole-4-N(4-dimethylaminobenzyl)-carboxamide hydrochloride]			IC50 [3, 5]: 100 µM
Nc1c(C(=O)NCc2cccc(I)c2)ncn1[C@@H]1O[C@H](CO)[C@@H](O)[C@H]1O [Compound No. 44, 5-Amino-1-β-D-ribofuranosyl-imidazole-4-N-[(3-iodophenyl)methyl]carboxamide]			IC50 [3, 4]: 20 µM
NC(=O)c1ncn([C@@H]2O[C@H](CNCc3ccc(Cl)cc3)[C@@H](O)[C@H]2O)c1N [Compound No. 76, 5-Amino-1-(5-(4-chlorobenzyl-amino)-5-deoxyβ-D-ribofuranosyl)imidazole-4-carboxamide]		74.0±2.5 (6) %	
Nc1c(C(=O)NCc2ccccc2Cl)ncn1[C@@H]1O[C@H](CO)[C@@H](O)[C@H]1O [Compound No. 24, 5-Amino-1-β-D-ribofuranosylimidazole-4-N-[(2-chlorophenyl)methyl]carboxamide]	300		IC50 ([3]; Cavia porcellus): 400 µM
CNC[C@H]1O[C@@H](n2cnc(C(N)=O)c2N)[C@H](O)[C@@H]1O [Compound No. 63, 5-Amino-1-β-D-(5-deoxy-5-methylaminoribofuranosyl)imidazole-4-carboxamide]		79.7±4.8 (4) %	
Nc1c(C(=O)Nc2ccccc2Cl)ncn1[C@@H]1O[C@H](CO)[C@@H](O)[C@H]1O [Compound No. 64, 5-Amino-1-β-D-ribofuranosylimidazole-4-N-(2-chlorophenyl)carboxamide]	48		
Nc1c(C(=O)NC2CCC(NC(=O)c3ncn([C@@H]4O[C@H](CO)[C@@H](O)[C@H]4O)c3N)CC2)ncn1[C@@H]1O[C@H](CO)[C@@H](O)[C@H]1O (stereo partly drawn) [Compound No. 69, N,N'-Bis-(5-Amino-1-β-D-ribofuranosylimidazole-4-carbonyl)-1,4-diaminocyclohexane]		77.0±2.8 (6) %	
Nc1c(C(=O)Nc2ccc(I)cc2)ncn1[C@@H]1O[C@H](CO)[C@@H](O)[C@H]1O [Compound No. 57, 5-Amino-1-β-D-ribofuranosyl-imidazole-4-N-(4-iodophenyl)carboxamide]	80		
C[C@H]1O[C@@H](n2c(S)nc(C(N)=O)c2N)[C@H](O)[C@@H]1O [Compound No. 67, 5-Amino-2-thio-1-β-D-(5-deoxyribofuranosyl)imidazole-4-carboxamide]		77.4±5.7 (3) %	
Nc1c(C(=O)NC2CC3CCC2C3)ncn1[C@@H]1O[C@H](CO)[C@@H](O)[C@H]1O (stereo partly drawn) [Compound No. 45, 5-Amino-1-β-D-ribofuranosylimidazole-4-N-(2-endo-norbornyl)carboxamide]	90		IC50 ([3]; Cavia porcellus): 100 µM
Nc1c(C(=O)Nc2ccc(Br)cc2)ncn1[C@@H]1O[C@H](CO)[C@@H](O)[C@H]1O [Compound No. 55, 5-Amino-1-β-D-ribofuranosylimidazole-4-N-(4-bromophenyl)carboxamide]	60		
CCN(CC)C[C@H]1O[C@@H](n2cnc(C(N)=O)c2N)[C@H](O)[C@@H]1O [compound 65, 5-Amino-1-(5-deoxy-5-diethylaminoribo-β,D-furanosyl)imidazole-4-carboxamide]		72.3±5.6 (4) %	
